The source of these data is patent US20250152585A1, “PHARMACEUTICAL COMPOUND” (Duke Street Bio Limited, priority 2022, published 2025).

Molecules are shown by their SMILES. pIC50, pKd: −log10 of the molar value. Read-outs that look alike come from different tables or passages of the source. Where only a bound is given, the exact number is not on record here.

The target in assay [1] is T1, N-terminally FLAG-tagged PARP2 (amino acids 1-583) (Homo sapiens, UniProt Q9UGN5).
T1 construct: N-terminally FLAG-tagged PARP2 (amino acids 1-583)
Briefly: PARP2 probe displacement HTRF assay. Format: binding. The note with it: binned Kd. The method, then:
Data analysis was performed identical as for PARP1.
On the technique in general: Time-resolved FRET reads energy transfer from a long-lived donor to a nearby acceptor.

In assay [2] the target is T2, full length N-terminally FLAG-tagged PARP1 (Homo sapiens, UniProt P09874). The assay can be described thus: PARP1 probe displacement HTRF assay. The note with it: for Selectivity: PARP1 over PARP2, ratio Kd (PARP2)/Kd (PARP1); for pKd: binned Kd.
Assay [3] concerns the target T2, full length N-terminally FLAG-tagged PARP1. The assay can be described thus: PARP1 biochemical DELFIA assay (auto-PARylation). On the set-up: recombinant full length human N-terminally FLAG-tagged PARP1.
Where [4] appears, read: read-out: PARP1 HTRF, PARP1 probe displacement HTRF.
The mark [5] stands for this setting: binned IC50, PARP1 biochemical DELFIA assay.
[6] abbreviates: PARP1 HTRF, PARP1 probe displacement HTRF.
Setting [7] is: read-out: PARP1 HTRF, probe displacement HTRF.
The mark [8] stands for this setting: binned IC50, biochemical auto-PARylation assay.

T1 sequence (Q9UGN5 whole entry, the tested form may be a part): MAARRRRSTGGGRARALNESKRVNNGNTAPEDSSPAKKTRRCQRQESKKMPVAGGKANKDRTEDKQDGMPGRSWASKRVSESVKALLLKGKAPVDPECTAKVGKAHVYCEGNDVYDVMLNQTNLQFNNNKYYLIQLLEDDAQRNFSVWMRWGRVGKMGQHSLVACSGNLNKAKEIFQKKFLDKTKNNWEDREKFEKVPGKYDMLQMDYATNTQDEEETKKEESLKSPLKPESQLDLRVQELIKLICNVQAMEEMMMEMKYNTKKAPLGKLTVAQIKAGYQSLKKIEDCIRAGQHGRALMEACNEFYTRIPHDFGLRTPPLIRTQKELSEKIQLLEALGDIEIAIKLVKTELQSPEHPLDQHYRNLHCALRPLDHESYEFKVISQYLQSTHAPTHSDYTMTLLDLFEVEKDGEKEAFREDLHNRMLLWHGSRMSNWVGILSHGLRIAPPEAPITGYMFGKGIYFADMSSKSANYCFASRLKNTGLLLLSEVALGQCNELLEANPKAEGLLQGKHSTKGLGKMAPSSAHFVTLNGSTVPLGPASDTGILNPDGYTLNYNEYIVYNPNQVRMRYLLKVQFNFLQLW
T2 sequence (P09874 whole entry): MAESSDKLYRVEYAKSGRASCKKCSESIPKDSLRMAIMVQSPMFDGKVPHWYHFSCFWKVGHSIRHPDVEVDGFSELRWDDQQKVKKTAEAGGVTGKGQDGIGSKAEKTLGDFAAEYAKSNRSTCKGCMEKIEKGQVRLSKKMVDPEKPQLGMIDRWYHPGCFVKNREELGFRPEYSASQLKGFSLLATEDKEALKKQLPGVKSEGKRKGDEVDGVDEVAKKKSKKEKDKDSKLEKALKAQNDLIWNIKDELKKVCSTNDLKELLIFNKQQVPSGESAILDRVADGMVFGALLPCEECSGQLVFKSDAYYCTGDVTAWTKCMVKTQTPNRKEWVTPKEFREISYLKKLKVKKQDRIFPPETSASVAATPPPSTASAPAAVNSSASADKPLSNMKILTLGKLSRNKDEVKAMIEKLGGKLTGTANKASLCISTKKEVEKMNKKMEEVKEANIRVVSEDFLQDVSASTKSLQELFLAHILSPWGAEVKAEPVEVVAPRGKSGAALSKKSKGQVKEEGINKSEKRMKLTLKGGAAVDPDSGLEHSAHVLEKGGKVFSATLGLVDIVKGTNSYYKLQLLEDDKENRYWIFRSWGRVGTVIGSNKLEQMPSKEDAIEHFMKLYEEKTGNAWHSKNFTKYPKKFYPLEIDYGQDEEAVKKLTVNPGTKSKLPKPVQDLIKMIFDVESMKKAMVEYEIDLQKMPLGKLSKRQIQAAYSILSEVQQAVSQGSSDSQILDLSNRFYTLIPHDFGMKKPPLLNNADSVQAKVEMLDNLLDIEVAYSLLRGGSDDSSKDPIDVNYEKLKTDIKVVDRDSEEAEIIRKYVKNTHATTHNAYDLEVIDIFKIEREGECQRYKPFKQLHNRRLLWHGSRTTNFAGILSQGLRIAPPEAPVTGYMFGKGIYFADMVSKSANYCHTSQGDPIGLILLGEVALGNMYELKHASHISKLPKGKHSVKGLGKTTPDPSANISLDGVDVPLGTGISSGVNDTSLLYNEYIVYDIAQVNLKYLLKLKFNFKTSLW

As for `CNC(=O)c1ccc(N2CCC(N3CCC(c4nc5c(c(C(F)(F)F)nn5C)c(=O)[nH]4)C3)CC2)cn1` (single isomer, unassigned) [Compound 187b], the pKd in assay [1] (PARP2 probe displacement HTRF) and in assay [2] (setting [4]) was greater than 8.00 in each case. Moreover, the Selectivity result in assay [2] (probe displacement HTRF) is given as “− (− indicates a value of less than 10)”. The negative-log IC50 (pIC50) (in general, the negative decadic logarithm of the IC50, by convention in mol/L) in assay [3] (setting [5]) is greater than 8.00.

As for `CNC(=O)c1ccc(OCCN2CCC(c3nc4ccccc4c(=O)[nH]3)CC2)cn1` [Compound 63], the figures for the pKd in assay [1] (PARP2 probe displacement HTRF) and in assay [2] (setting [6]) were 5.00 to 6.00 and 7.00 to 8.00, respectively. Further, the Selectivity result in assay [2] (probe displacement HTRF) was “++ (++ indicates a value of 50 to less than 100)”. The pIC50 in assay [3] (setting [5]) is greater than 8.00.

For the compound `CNC(=O)c1ccc(N2CCC(N3CCCC(c4nc5sc6c(c5c(=O)[nH]4)CCC6)C3)CC2)cn1` (single isomer, unassigned) [Compound 185b], the results for the pKd in assay [1] (PARP2 probe displacement HTRF) and in assay [2] (setting [4]) were 5.00 to 6.00 and 6.00 to 7.00, respectively. Also, the Selectivity result in assay [2] (probe displacement HTRF) is reported as “+ (+ indicates a value of 10 to less than 50)”. In addition, in assay [3] (setting [5]), the negative-log IC50 (pIC50) was 7.00 to 8.00.

In the case of `CNC(=O)c1ccc(N2CC(N3CCC(c4nc5ccccc5c(=O)[nH]4)C3)C2)cn1` (single isomer, unassigned) [Compound 61b], the pKd is 5.00 to 6.00 in assay [1] (PARP2 probe displacement HTRF) and greater than 8.00 in assay [2] (setting [4]). The Selectivity entry in assay [2] (probe displacement HTRF) is listed as “+++ (+++ indicate a value of at least 100)”. Moreover, the negative-log IC50 (pIC50) in assay [3] (setting [5]) is greater than 8.00.

With `CNC(=O)c1ccc(N2CCC(N3CCC(c4nc5[nH]nc(C(F)(F)F)c5c(=O)[nH]4)C3)CC2)cn1` (single isomer, unassigned) [Compound 162b, N-methyl-5-(4-(3-(4-oxo-3-(trifluoromethyl)-4,5-dihydro-1H-pyrazolo[3,4-d]pyrimidin-6-yl)pyrrolidin-1-yl)piperidin-1-yl)picolinamide], the pKd was 7.00 to 8.00 in assay [1] (PARP2 probe displacement HTRF) and greater than 8.00 in assay [2] (setting [6]). Besides, the Selectivity entry in assay [2] (probe displacement HTRF) is on record as “++ (++ indicates a value of 50 to less than 100)”. The pIC50 in assay [3] (setting [5]) was greater than 8.00.

`O=C(NCCF)c1ccc(N2CCC(N3CCC(c4nc5ccccc5c(=O)[nH]4)C3)CC2)cn1` (single isomer, unassigned) [Compound 117a]: the pKd in assay [1] (PARP2 probe displacement HTRF) was 6.00 to 7.00; in assay [2] (setting [4]), 7.00 to 8.00. Also, in assay [2] (probe displacement HTRF), the Selectivity entry was “+ (+ indicates a value of 10 to less than 50)”. Also, the negative-log IC50 (pIC50) in assay [3] (setting [5]) is 7.00 to 8.00.

In the case of `CNC(=O)c1ccc(N2CCC(N3CCC(c4cc5ccc(F)cc5c(=O)[nH]4)C3)CC2)c(Cl)n1` (single isomer, unassigned) [Compound 223a], the results for the pKd in assay [1] (probe displacement HTRF) and in assay [2] (setting [7]) were 6.00 to 7.00 and greater than 8.00, respectively. Further, the Selectivity entry in assay [2] (probe displacement HTRF) is “+++ (+++ indicate a value of at least 100)”. For the same compound, in assay [3] (setting [8]), the pIC50 was greater than 8.00.

As to `CNC(=O)c1ncc(N2CCC(N3CCC(c4cc5ccc(F)cc5c(=O)[nH]4)C3)CC2)c(C(F)(F)F)n1` (single isomer, unassigned) [Compound 266b], the pKd was less than 5.00 in assay [1] (probe displacement HTRF) and 7.00 to 8.00 in assay [2] (setting [7]). In assay [2] (probe displacement HTRF), the Selectivity entry is on record as “+++ (+++ indicate a value of at least 100)”. Moreover, the negative logarithm of the IC50 (pIC50) in assay [3] (setting [8]) is 7.00 to 8.00.

Turning to `CNC(=O)c1ccc(N2CCC(N3CCC(c4nc5c(c(=O)[nH]4)CCCN5)C3)CC2)cn1` (single isomer, unassigned) [Compound 214b], the figures for the pKd in assay [1] (PARP2 probe displacement HTRF) and in assay [2] (setting [4]) were 6.00 to 7.00 and greater than 8.00, respectively. The Selectivity entry in assay [2] (probe displacement HTRF) is recorded as “+++ (+++ indicate a value of at least 100)”. Further, the pIC50 in assay [3] (setting [5]) is greater than 8.00.

For `N#Cc1ccc(N2CCC(N3CCC(c4nc5ccccc5c(=O)[nH]4)C3)CC2)nc1` (single isomer, unassigned) [Compound 55b], the pKd in assay [1] (PARP2 probe displacement HTRF) is 6.00 to 7.00; in assay [2] (setting [4]), 7.00 to 8.00. Further, in assay [2] (probe displacement HTRF), the Selectivity entry was “− (− indicates a value of less than 10)”. In addition, in assay [3] (setting [5]), the pIC50 was 7.00 to 8.00.

`CNC(=O)c1ccc(N2CCC(N3CCC(O)(c4nc5ccccc5c(=O)[nH]4)C3)CC2)cn1` (single isomer, unassigned) [Compound 140a]: the pKd in assay [1] (PARP2 probe displacement HTRF) is less than 5.00; in assay [2] (setting [4]), 7.00 to 8.00. For the same compound, in assay [2] (probe displacement HTRF), the Selectivity entry is “++ (++ indicates a value of 50 to less than 100)”. The pIC50 in assay [3] (setting [5]) is 6.00 to 7.00.
